Results on 27 molecules are retold here after patent publication US5554620A, “Substituted 6,11-ethano-6,11-dihydrobenzo[b] quinolizinium salts and compositions and methods of use thereof” (Sterling Winthrop Inc., priority 1994, dated 1996).

The target of this assay is PCP receptor. The assay can be described thus: [3H]TCP radioreceptor assay (binding to PCP recognition sites). As to conditions: for Ki: [3H]TCP approx. 1 nM, rat brain membranes, mean of at least two determinations. More on the design: species or system rat (male Sprague-Dawley, whole brain). As to the method:
[^3 H]TCP Radioreceptor Assay
[^3 H]TCP binding to PCP recognition sites was performed as described by Vignon et al. Brain Research 1983, 280, 194-197. Male Sprague-Dawley rats were sacrificed by decapitation, and whole brains were homogenized in 10 volumes (wt/vol) of cold Tris-HCl buffer (50 mM, pH 7.7) using a Brinkmann Polytron (setting 6, 30 sec). The homogenate was centrifuged at 40,000×g for 10 min at 4° C. The supernatant was decanted, and the homogenization and centrifugation steps were repeated twice as described above. Following this, the pellet was resuspended in Tris-HCl (5 mM, pH 7.7) at a tissue concentration of 0.5-0.75 g/mL, and one mL aliquots were frozen at -70° C. until use. The binding characteristics for PCP recognition sites were not altered by the freezing of membrane suspensions.
On the day of the assay, membrane aliquots were thawed, resuspended in fresh 5 mM Tris-HCl buffer at a tissue concentration of 1 mg/mL, and stored on ice until use. Each assay tube contained 100 μl of [^3 H]TCP at a final concentration of approximately 1 nM, 100 μL of various concentrations of the compounds of interest, 500 μL of the tissue suspension and 300 μL of buffer to a final assay volume of 1 mL and a final protein concentration of 0.5 mg/tube. Non-specific binding was defined by addition of a final concentration of 100 μM PCP to blank tubes. All tubes were incubated at room temperature for 25 min before termination of the reaction by rapid filtration over Whatman GF/B glass fiber filters that had been presoaked in a solution of 0.5% polyethylenimine for at least 1 hr prior to use. Filters were washed with three 4 mL volumes of cold Tris buffer. Following addition of scintillation cocktail, the amount of bound radioactivity was determined by liquid scintillation spectrometry using a Beckman LS 5000TA liquid scintillation counter with an efficiency for tritium of approximately 55%. Inhibition constants (Ki values) were calculated using the EBDA/LIGAND program (McPherson, J. Pharmacol. Meth. 1985, 14, 213-228), purchased from ElsevierBiosoft, Inc. Results are reported as the Ki values (in nM) which are expressed as the mean of at least two separate determinations; or as a percent (%) inhibition of binding at 10 μM.

The molecule `[O-][Cl+3]([O-])([O-])[O-].c1ccc(C2(N3CCOCC3)CC3c4ccccc4C2c2cccc[n+]23)cc1` (stereo not drawn) [111(b), 6,11-Ethano-12-phenyl-12-(4-morpholinyl)-6,11-dihydrobenzo[b]quinolizinium perchlorate] yielded a Ki of 37.8 nM.
On the same count and under the same terms, as for `Cn1ccc(C2(c3ccn(C)n3)CC3c4ccccc4C2c2cccc[n+]23)n1` (stereo not drawn) [158(f), 6,11-ethano-12,12-di[3-(1-methylpyrazolyl)]-6,11-dihydrobenzo[b]quinolizinium chloride], the figure is 632 nM.
For `c1ccc2c(c1)C1CC(c3nc[nH]n3)(c3nc[nH]n3)C2c2cccc[n+]21` (stereo not drawn) [159(h), 6,11-ethano-12,12-di-[3-(1,2,4-triazolyl)]-6,11-dihydrobenzo[b]quinolizinium chloride], the “[3H]TCP percent inhibition @ 10 μm” value (inhibition of [3H]TCP binding at 10 μM) came to 31%.
Regarding `COc1ncccc1C1(c2cccnc2OC)CC2c3ccccc3C1c1cccc[n+]12.[O-][Cl+3]([O-])([O-])[O-]` (stereo not drawn) [160(d), 6,11-ethano-12,12-di-(2-methoxypyridin-3-yl)-6,11-dihydrobenzo[b]quinolizinium perchlorate], the Ki came to 453 nM.
The molecule `c1ccc2c(c1)C1CC(c3cn[nH]c3)(c3cn[nH]c3)C2c2cccc[n+]21` (stereo not drawn) [161(d), 6,11-ethano-12,12-di(pyrazol-4-yl)]-6,11-dihydrobenzo[b]quinolizinium perchlorate] yielded a Ki of 3680 nM. This Ki is about 8.1-fold higher than that of the molecule before.
The same measure, in the same setting: for `C=C1C2c3ccccc3C(c3cccc[n+]32)C1(c1ccoc1)c1ccoc1` (stereo not drawn) [162(d), 6,11-ethano-12,12-di(3-furyl)-13-methylene-6,11-dihydrobenzo[b]quinolizinium hexafluorophosphate] the value was 2.31 nM.
Same read-out and setting: for `COc1ccc[n+]2c1C1c3ccccc3C2CC1(c1ccoc1)c1ccoc1` (stereo not drawn) [164(e), 6,11-ethano-12,12-di(3-furyl)-1-methoxy-6,11-dihydrobenzo[b]quinolizinium chloride] the value was 18.9 nM; for `CCOC(=O)C=CC(=O)Oc1cccc2c1C1c3cccc[n+]3C2CC1(c1ccoc1)c1ccoc1` (stereo not drawn) [167(c), 6,11-ethano-12,12-di(3-furyl)-10-(OC(O)CH=CHCO2 Et)-6,11-dihydrobenzo[b]quinolizinium perchlorate], 7.68 nM.
The same measure, in the same setting: for `c1ccc2c(c1)C1CC(c3ncc[nH]3)(c3ncc[nH]3)C2c2cccc[n+]21` (stereo not drawn) [173(e), 6,11-ethano-12,12-di(imidazol-2-yl)-6,11-dihydrobenzo[b]quinolizinium chloride] the value was 1670 nM.
For the molecule `Oc1cccc2c1C1c3cccc[n+]3C2CC1(c1cc[nH]n1)c1cc[nH]n1` (stereo not drawn) [175(b)], affinity was put at a Ki of 119 nM.
On the same count and under the same terms, as for `COC(=O)C12CC(c3ccoc3)(c3ccoc3)C(c3ccccc31)c1cccc[n+]12` (stereo not drawn) [176(d), 6,11-ethano-12,12-di(3-furyl)-6-methoxycarbonyl-6,11-dihydrobenzo[b]quinolizinium chloride], the figure is 39.4 nM; as for `CCOC(=O)CC(C)(C)C(=O)Oc1cccc2c1C1c3cccc[n+]3C2CC1(c1ccoc1)c1ccoc1` (stereo not drawn) [178(d), 6,11-ethano-12,12-di(3-furyl)-10-(OC(O)C(CH3)2 CH2 CO2Et)-6,11-dihydrobenzo[b]quinolizinium chloride], 1430 nM; as for `COc1cccc2c1C1c3cccc[n+]3C2CC1(c1cc[nH]n1)c1cc[nH]n1` (stereo not drawn) [179(b), 6,11-ethano-12,12-di(pyrazolyl-3-yl]-10-methoxy-6,11-dihydrobenzo[b]quinolizinium chloride], 259 nM.
The molecule `c1ccc2c(c1)C1CC(c3ccoc3)(c3ccoc3)C2c2c3ccccc3cc[n+]21` (stereo not drawn) [180(g), 14,14-di(3-furyl)-8,13-ethano-8,13-dihydrodibenzo[a,g]quinolizinium chloride] displayed a Ki of 19.9 nM.
Still for that read-out and setting: as for `OCc1cccc2c1C1c3cccc[n+]3C2CC1(c1ccoc1)c1ccoc1.[O-][Cl+3]([O-])([O-])[O-]` (stereo not drawn) [182(e), 6,11-ethano-12,12-di(3-furyl)-10-hydroxymethyl-6,11-dihydrobenzo[b]quinolizinium perchlorate], the figure is 159 nM; as for `c1cc[n+]2c(c1)C1c3c(ccc4c3OCO4)C2CC1(c1ccoc1)c1ccoc1` (stereo not drawn) [183(c), 6,11-ethano-12,12-di(3-furyl)-9,10-methylenedioxy-6,11-dihydrobenzo[b]quinolizinium chloride], 2.72 nM; as for `Brc1cc2cn[nH]c2c2cc3cccc[n+]3cc12` [186(g), 7-bromo-9,10-pyrazolo-benzo[b]quinolizinium hexafluorophosphate], 122 nM.
On the same count and under the same terms, for `COc1c(Cl)ccc2c1C1c3cccc[n+]3C2CC1(c1ccoc1)c1ccoc1` (stereo not drawn) [187(g), 6,11-ethano-12,12-di(3-furyl)-9-chloro-10-methoxy-6,11-dihydrobenzo[b]quinolizinium chloride] the value was 63.7 nM; for `Oc1c(Cl)ccc2c1C1c3cccc[n+]3C2CC1(c1ccoc1)c1ccoc1` (stereo not drawn) [188(c), 6,11-ethano-12,12-di(3-furyl)-9-chloro-10-hydroxy-6,11-dihydrobenzo]b]quinolizinium chloride], 23.6 nM.
In turn, `Clc1ccc2c(c1)C1c3cccc[n+]3C2CC1(c1ccn[nH]1)c1ccn[nH]1` (stereo not drawn) [189(b), 6,11-ethano-12,12-di-(pyrazol-5-yl)]-9-chloro-6,11-dihydrobenzo[b]quinolizinium perchlorate] showed a Ki of 22.5 nM.
Same read-out and setting: for `Oc1cccc2c1C1c3cccc[n+]3C2CC1(c1cc[nH]c1)c1cc[nH]c1` (stereo not drawn) [190(b), 6,11-ethano-12,12-di(3-pyrrolyl)-10-hydroxy-6,11-dihydrobenzo[b]quinolizinium chloride] the value was 10.7 nM.
Regarding `Clc1cccc2[n+]1C1CC(c3ccoc3)(c3ccoc3)C2c2ccccc21.[O-][Cl+3]([O-])([O-])[O-]` (stereo not drawn) [192(g), 6,11-ethano-12,12-di(3-furyl)-4-chloro-6,11-dihydrobenzo[b]-quinolizinium perchlorate], the Ki was 633 nM.
On the same count and under the same terms, as for `CCCCCCCCOC(=O)CC(C)(C)C(=O)Oc1cccc2c1C1c3cccc[n+]3C2CC1(c1ccoc1)c1ccoc1` (stereo not drawn) [194(d), 12,12-di(3-furyl)-10-(OC(O)C(CH3)2 CH2 C(O)OOctyl)-6,11-ethano-6,11-dihydrobenzo[b]quinolizinium chloride], the figure is 71.3 nM; as for `Fc1ccc[n+]2c1C1c3ccccc3C2CC1(c1ccoc1)c1ccoc1.[O-][Cl+3]([O-])([O-])[O-]` (stereo not drawn) [197(d), 6,11-ethano-12,12-di(3-furyl)-1-fluoro-6,11-dihydrobenzo[b]quinolizinium perchlorate], 13.8 nM.
In turn, `Fc1ccc2c(c1)C1c3cccc[n+]3C2CC1(c1cc[nH]n1)c1cc[nH]n1` (stereo not drawn) [198(b), 6,11-ethano-12,12-di-(pyrazol-3-yl)]-9-fluoro-6,11-dihydrobenzo-[b]quinolizinium chloride] had a Ki of 11.7 nM.
Still for that read-out and setting: as for `c1ccc(C23c4ccccc4CC2C2c4ccccc4C3c3cccc[n+]32)cc1` (stereo not drawn) [Example 1F, 6,11[[2',3']-3'-phenyl-indanyl]6,11-dihydrobenzo[b]quinolizinium hexafluorophosphate], the figure is 7.58 nM.
The molecule `c1ccc2c(c1)C1C3CCc4occc4C3(c3cc4ccccc4o3)C2c2cccc[n+]21` (stereo not drawn) [Example 10(c), 6,11[[5',4']-4'-(2-benzofuryl)-4',5',6',7'-tetrahydrobenzofuryl]6,11-dihydrobenzo[b]quinolizinium hexafluorophosphate] came in with an inhibition constant Ki of 1100 nM.
